Measured values from ChEMBL document CHEMBL3867469, “Discovery of phenoxyindazoles and phenylthioindazoles as RORγ inverse agonists” (Bioorg Med Chem Lett, 2016).

Key:
[1] = target: T1, Nuclear receptor ROR-gamma (Homo sapiens, UniProt P51449)
T1 sequence (P51449 whole entry): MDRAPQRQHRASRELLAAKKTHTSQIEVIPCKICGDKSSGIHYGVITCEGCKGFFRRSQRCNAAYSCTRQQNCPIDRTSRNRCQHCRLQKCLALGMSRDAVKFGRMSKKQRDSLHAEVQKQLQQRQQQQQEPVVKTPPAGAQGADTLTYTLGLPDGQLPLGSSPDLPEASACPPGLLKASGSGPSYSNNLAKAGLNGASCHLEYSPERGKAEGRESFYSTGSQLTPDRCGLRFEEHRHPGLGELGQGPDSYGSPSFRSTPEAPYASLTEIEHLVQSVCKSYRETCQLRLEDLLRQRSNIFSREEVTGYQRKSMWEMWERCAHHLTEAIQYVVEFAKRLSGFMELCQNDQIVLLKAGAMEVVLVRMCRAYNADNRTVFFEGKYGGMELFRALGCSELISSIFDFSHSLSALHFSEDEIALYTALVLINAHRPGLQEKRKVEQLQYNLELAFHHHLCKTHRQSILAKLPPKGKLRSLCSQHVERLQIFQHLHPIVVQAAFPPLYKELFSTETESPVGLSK
Description: Inverse agonist activity at GAL4 DBD-fused RORgammat LBD (unknown origin) expressed in HG5LN cells after 18 hrs by luciferase reporter gene assay

[2] = target: T2, Retinoic acid receptor gamma (Homo sapiens, UniProt P13631)
T2 sequence (P13631 whole entry): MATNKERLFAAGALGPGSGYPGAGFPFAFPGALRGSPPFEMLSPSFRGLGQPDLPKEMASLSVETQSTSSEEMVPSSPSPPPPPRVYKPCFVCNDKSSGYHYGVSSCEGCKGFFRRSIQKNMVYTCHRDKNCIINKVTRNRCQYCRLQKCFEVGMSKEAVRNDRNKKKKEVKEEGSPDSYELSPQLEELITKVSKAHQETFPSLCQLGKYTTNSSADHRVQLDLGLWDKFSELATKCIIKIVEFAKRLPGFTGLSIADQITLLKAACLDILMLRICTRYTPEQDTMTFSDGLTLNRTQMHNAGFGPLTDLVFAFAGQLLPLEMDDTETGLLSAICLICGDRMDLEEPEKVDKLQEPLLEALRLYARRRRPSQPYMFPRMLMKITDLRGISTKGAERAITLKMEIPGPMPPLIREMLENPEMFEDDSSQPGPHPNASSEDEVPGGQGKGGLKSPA
Description: Inverse agonist activity at GAL4 DBD-fused RARgamma LBD (unknown origin) expressed in human HG5LN cells after 18 hrs by luciferase reporter gene assay

[3] = physchem; details: buffer, pH 6.5
[4] = in vitro; details: human, neonatal keratinocytes
Description: Photocytotoxicity against human neonatal keratinocytes assessed as decrease in cell viability by measuring ratio of IC50 in presence of UV to IC50 in absence of UV after 30 mins by neutral red dye based assay

[5] = Photocytotoxicity against human neonatal keratinocytes assessed as decrease in cell viability preincubated for 30 mins followed by 5 J/cm2 UV light irradiation for 15 mins measured after 24 hrs by neutral red dye based assay; type: toxicity; details: neonatal keratinocyte

Row | SMILES | IC50 [1] [µM] | IC50 [2] [µM] | logD [3] | selectivity ratio at 0.5 h [4] | Activity [5]
1 | O=C(O)c1ccc(-n2nc(Sc3c(Cl)cccc3Cl)c3cc(C(=O)N4CCC4)ccc32)cc1 | 1.2 | 4.1 | 1.7 |  | 
2 | Cc1cccc2c(Oc3c(Cl)cccc3Cl)nn(-c3ccc(C(=O)O)cc3)c12 | > 10 | > 10 | 2.6 |  | 
3 | O=C(O)c1ccc(-n2nc(Oc3c(Cl)cccc3Cl)c3ccccc32)cc1 | 0.14 | 1.4 | 2.8 | > 62 | 
4 | Cc1cc(C(=O)O)ccc1-n1nc(Oc2c(Cl)cccc2Cl)c2ccccc21 | 3.6 | 6.2 | 3 | 41 | 
5 | O=C(O)c1ccc(-n2nc(Oc3c(Cl)cccc3Cl)c3cccc(F)c32)cc1 | 0.088 | 7.6 | 2.8 | 30 | 
6 | Cc1cccc2c1c(Oc1c(Cl)cccc1Cl)nn2-c1ccc(C(=O)O)cc1 | 0.82 | 1.1 | 3.6 | 19 | 
7 | CN(C)C(=O)c1ccc2c(c1)c(Nc1c(Cl)cccc1Cl)nn2-c1ccc(C(=O)O)cc1 | 3.6 | > 10 | 0.9 |  | 
8 | N#Cc1ccc2c(c1)c(Oc1c(Cl)cccc1Cl)nn2-c1ccc(C(=O)O)cc1 | > 10 | 1.4 | 2.6 | 138 | 
9 | O=C(O)c1ccc(-n2nc(Oc3c(Cl)cccc3Cl)c3ncccc32)cc1 | 2.1 | 6.8 | 1.3 | 11 | 
10 | CN(C)C(=O)c1ccc2c(c1)c(Sc1ccccc1)nn2-c1ccc(C(=O)O)cc1 | > 10 | 3.5 | 1 |  | 
11 | O=C(O)c1ccc(-n2nc(Cc3c(Cl)cccc3Cl)c3ccccc32)cc1 | 1.8 | 6.8 | 2.8 |  | 
12 | O=C(O)[C@H]1CC[C@H](n2nc(Oc3c(Cl)cccc3Cl)c3ccccc32)CC1 | > 10 | > 10 | 3.1 | 41 | 
13 | CN(c1c(Cl)cccc1Cl)c1nn(-c2ccc(C(=O)O)cc2)c2ccccc12 | > 10 |  | 2.6 |  | 
14 | O=C(O)c1ccc(-n2nc(Oc3c(Cl)cccc3Cl)c3ccccc32)cn1 | > 10 | > 10 | 3.7 | 30 | 
15 | CCS(=O)(=O)c1ccc(CC(=O)Nc2nc(-c3cccc(Cl)c3)c(C(=O)c3ccccc3Cl)s2)cc1 | 0.08 | > 10 | 5.2 |  | 
16 | CN(C)C(=O)c1ccc2c(c1)c(Oc1c(Cl)cccc1Cl)nn2-c1ccc(C(=O)O)cc1 | 0.3 | > 10 | 1.5 |  | 
17 | CN1CCN(C(=O)c2ccc3c(c2)c(Sc2c(Cl)cccc2Cl)nn3-c2ccc(C(=O)O)cc2)CC1 | 9.2 | 7.7 | 1 |  | 
18 | CN(C)C(=O)c1ccc2c(c1)c(Sc1cc(Cl)ccc1Cl)nn2-c1ccc(C(=O)O)cc1 | 4.3 | > 10 | 1.9 |  | 
19 | Cc1cccc(C)c1Sc1nn(-c2ccc(C(=O)O)cc2)c2ccc(C(=O)N(C)C)cc12 | 0.37 | > 10 | 1.6 |  | Toxic
20 | O=C(O)c1ccc(-n2nc(Oc3c(Cl)cccc3Cl)c3cccnc32)cc1 | 1.2 | 3.8 | 2.3 | 190 | 
21 | Cc1ccc([C@@H](NC(=O)Cc2ccc3oc([C@@H](O)c4c(C)noc4C)cc3c2)c2ccccc2)c(C)c1 | 0.044 | > 10 | 4.7 |  | 
22 | CN(Cc1ccccc1)C(=O)c1ccc2c(c1)c(Sc1c(Cl)cccc1Cl)nn2-c1ccc(C(=O)O)cc1 | > 10 | > 10 | 2.9 |  | 
23 | O=C(O)c1ccc(-c2nn(C(=O)c3c(Cl)cccc3Cl)c3ccccc23)cc1 | 0.06 | 1.3 | 2.4 |  | Toxic
24 | O=C(O)c1cc(F)c(-n2nc(Oc3c(Cl)cccc3Cl)c3ccccc32)c(F)c1 | 0.31 | > 10 | 2.9 | 16 | 
25 | O=C(O)c1ccc(-n2nc(S(=O)(=O)c3c(Cl)cccc3Cl)c3ccccc32)cc1 | 4.8 | 8.4 | 1.8 |  | 

Row | SMILES | IC50 [1] [µM] | IC50 [2] [µM] | logD [3] | selectivity ratio at 0.5 h [4] | Activity [5]
26 | O=C(O)[C@H]1CC[C@@H](n2nc(Oc3c(Cl)cccc3Cl)c3ccccc32)CC1 | > 10 | > 10 | 3.4 | 108 | 
27 | CN(C)C(=O)c1ccc2c(c1)c(Sc1cccc(Cl)c1Cl)nn2-c1ccc(C(=O)O)cc1 | 5.9 | > 10 | 2.1 |  | Toxic
28 | CN(CCO)C(=O)c1ccc2c(c1)c(Sc1c(Cl)cccc1Cl)nn2-c1ccc(C(=O)O)cc1 | > 10 | > 10 | 0.8 |  | 
29 | CN(C)C(=O)c1ccc2c(-c3ccc(C(=O)O)cc3)nn(C(=O)c3c(Cl)cccc3Cl)c2c1 | 0.054 | > 10 | 1.3 |  | 
30 | O=C(O)c1ccc(-n2nc([S+]([O-])c3c(Cl)cccc3Cl)c3ccccc32)cc1 (stereo unspecified) | 6.2 | 5.6 | 1.2 |  | 
31 | Cc1cc(C)c(Sc2nn(-c3ccc(C(=O)O)cc3)c3ccc(C(=O)N(C)C)cc23)c(C)c1 | 2.7 | > 10 | 2.1 |  | 
32 | O=C(O)c1ccc(-n2nc(Sc3c(Cl)cccc3Cl)c3cc(C(=O)N4CCOCC4)ccc32)cc1 | 6 | 4.2 | 1.5 |  | 
33 | CN(C)C(=O)c1ccc2c(c1)c(Sc1c(Cl)cccc1Cl)nn2-c1ccc(C(=O)O)cc1 | 0.59 | > 10 | 1.6 |  | Toxic
34 | Cc1ccccc1Sc1nn(-c2ccc(C(=O)O)cc2)c2ccc(C(=O)N(C)C)cc12 | > 10 | > 10 | 1.4 |  | 
35 | CN(C)C(=O)c1ccc2c(c1)c(Sc1ccc(Cl)cc1Cl)nn2-c1ccc(C(=O)O)cc1 | > 10 | > 10 | 2.2 |  | Toxic
36 | O=C(O)c1ccc(-n2nc(Oc3c(Cl)cccc3Cl)c3ccccc32)nc1 | 1.1 | 1.9 | 2.9 | 90 | 
37 | CN(C)C(=O)c1ccc2c(Oc3c(Cl)cccc3Cl)nn(-c3ccc(C(=O)O)cc3)c2c1 | > 10 | > 10 | 1.8 | 18 | 
38 | CCN(C)C(=O)c1ccc2c(c1)c(Sc1c(Cl)cccc1Cl)nn2-c1ccc(C(=O)O)cc1 | 6.5 | > 10 | 1.9 |  | 
39 | CS(=O)(=O)c1ccc2c(c1)c(Oc1c(Cl)cccc1Cl)nn2-c1ccc(C(=O)O)cc1 | > 10 | 4.5 | 1.7 | 87 | 
40 | O=C(O)c1ccc(-n2nc(Sc3c(Cl)cccc3Cl)c3cc(C(=O)N4CCCC4)ccc32)cc1 | 2.6 | > 10 | 1.9 |  | 
41 | O=C(O)c1ccc(-n2nc(Sc3c(Cl)cccc3Cl)c3cc(C(=O)N4CC(F)(F)C4)ccc32)cc1 | 0.72 | > 10 | 2.3 |  | 
42 | O=C(O)c1ccc(-n2nc(Oc3c(Cl)cccc3Cl)c3c(F)cccc32)cc1 | 0.26 | 0.8 | 2.8 | > 90 | 
43 | CN(C)C(=O)c1ccc2c(c1)c(S(=O)(=O)c1c(Cl)cccc1Cl)nn2-c1ccc(C(=O)O)cc1 | > 10 | > 10 | 0.9 |  | Toxic
44 | O=C(O)c1ccc(-n2nc(Sc3c(Cl)cccc3Cl)c3ccccc32)cc1 | 2.5 | 4.4 | 2.9 |  | Toxic
45 | Clc1cccc(Cl)c1Oc1n[nH]c2ccccc12 | > 10 | 5.7 | 4.9 | 1.6 | 
46 | O=C(O)c1ccc(-n2nc(Oc3c(Cl)cccc3Cl)c3ccccc32)c(F)c1 | 0.24 | > 10 | 2.8 | 32 | 
47 | O=C(O)c1ccc(-n2nc(Nc3c(Cl)cccc3Cl)c3ccccc32)cc1 | 2.5 | > 10 | 1.9 |  | 
48 | CCc1nn(C)c(CC)c1Oc1nn(-c2ccc(C(=O)O)cc2)c2ccccc12 | 4.8 | 9.1 | 1.6 | 121 | 
49 | CNC(=O)c1ccc2c(c1)c(Sc1c(Cl)cccc1Cl)nn2-c1ccc(C(=O)O)cc1 | > 10 | 2.7 | 1.2 |  | 
